For series [1], the system named is Integrins αV and β5. The experiment in a line: Integrins αV and β5 extractability, denaturing gel, HS cells. It is filed as cell-based, human. An excerpt: (§1) In the native gel, intensities of integrin bands are not changed in a parallel fashion to that in denaturing gels, which may be the result of intramolecular alterations.
(§2) […] In FIG. 6, the effect of AEEA on fibronectin, integrins αV and β5, and N-cadherin is examined, which have all been implicated in the development of HS. In a denaturing gel, TGFβ1 and AEEA exposure has a similar effect of increasing extractability of integrins and, to some extent, N-cadherin. […] Most interesting are interactions between AEEA and TGFβ1 with regard to HS cell expression of fibronectin, a critical molecule in cell adhesion, growth, migration, and differentiation, which is implicated in HS.

Series [2] has as its system triple helical collagen. In words: Native (non-denaturing) gel of collagen tertiary structure (triple helix) in HS cells. It is filed as cell-based, human. The note with it: for TGFβ1 effect: increase in triple helical collagen: TGFβ1 exposure last 4 days. The procedure:
Native lysis buffer uses digitonin; see text. […] TGFβ1 treatment (4 days) increases mature (triple helical) structure, while changing monomer ratio, an effect that is mimicked by AEEA-alone at 25 μM but not at 50 μM (see text and FIG. 7 re: fibronectin). TGFβ1 effect appears attenuated by 50 μM AEEA.
PGK1/2 is fraction marker. […] These collagen aberrations were then examined with non-denaturing, or “native” gels (FIG. 5). “Native” or “non-denaturing” gel electrophoresis is run in non-denaturing conditions, i.e., in the absence of any charged denaturing agents, such as SDS; and reducing agent. Native gel allows for the protein's natural structure to be maintained. Thus, the physical size of the folded or assembled complex affects mobility. In SDS-PAGE, the electrophoretic mobility of proteins depends primarily on their molecular mass alone; in native gel the mobility also depends on both the protein's charge and its hydrodynamic size. The native lysis buffer used contains: 50 mM Tris-HCl, pH 7.5; 150 mM NaCl and 1% Digitonin.
However this finding is not present at 50 μM AEEA. Following 25 μM AEEA alone, a 6-fold increase was seen. The triple helical structure in the presence of both AEEA and TGFβ1 appeared relatively diminished.
Total collagen content of the matrix can be determined by established extraction procedures and a dye-binding method based on the specific binding of Sirius Red dye to the [Gly-X-Y]n helical structure of collagen types I to XIV. The method has virtually an exact correlation with analytic methods for hydroxyproline content. Elastin can be determined in separate samples as soluble tropoelastin utilizing a dye binding assay (Accurate Chemical Corp., Westbury, N.Y.) and as insoluble elastin by repeated salt and alkali extraction as previously described. The effects of AEEA on collagen and other extra-cellular protein abundances can be further evaluated by using the normal human neonatal primary dermal fibroblast (ATCC® PCS-201-010™), and normal skin fibroblasts (NS Fb), and also hypertrophic scar fibroblasts (HS Fb) derived from skin of the other clinically evident HS developed by patients. Time course and dose response studies can also be used to test the effects of AEEA on stability of those proteins, by Western blotting, to see if it is degraded more quickly in the AEEA treated cells. For Western Blot, cultured N Fb and FS Fb grown and treated with AEEA as described above can be gently washed with 4° C. pre-chilled PBS. The plate is then placed on the surface of a −20° C. ice block. […] The protein concentrations of the samples extracted with RIPA measured by with the DC™ protein assay kit (Bio-Rad Laboratories, Inc. USA), while the protein of remaining extracts is quantitated with the BCA protein assay (Pierce). […]

Series [3] concerns fibronectin. The experiment in a line: Fibronectin extractability, denaturing gel following digitonin, HS cells. It counts as cell-based, human. The procedure:
Increased extractability of fibronectin induced by TGFβ1, with little effect of AEEA at 25 or 50 μM. However, the TGFβ1 enhancement of fibronectin is blocked by 50 μM AEEA (last two lanes). Fibronectin, a critical cell adhesion molecule, is implicated in HS. […] See text for densitometric analysis, FIGS. 3-7.

Series [4] deals with N-Cadherin. In words: Extractable N-Cadherin, denaturing gel, HS cells. It is filed as cell-based, human. The note with it: especially with both AEEA and TGFβ1.
Text: as §1, §2

The conditions of series [5]: in utero exposure; cited from earlier work.
Series [6] relates to skin fibroblasts. The experiment in a line: Scanning EM of interstitial matrix (skin fibroblasts removed). It counts as cell-based, human. As to conditions: AEEA 5, 10 mM, cells removed.
Procedure: Briefly, fibroblast-like cells are cultured on 13 mm diameter Nunc™ Thermanox™ Coverslips (Catalog #174950) in 24-well cell culture plates in DMEM supplemented with 13% FCS, antibiotics, and 50 μg/ml of sodium ascorbate; cells are seeded at the number that cell density reaches 70% confluence in 24 hours. AEEA treatments start before the formation of ECM, at the second day post passage. Sodium ascorbate, which is the crucial cofactor of lysyl oxidase (LOX), lysyl hydroxylase, and proline hydroxylase (to be assayed), is added daily, 5 days/week, to stimulate ECM assembly. AEEA is changed with culture media (every 3 days). […] After 14 days of culture, the resulting tissue sheets are gently rinsed twice with PBS, and then incubated in sterile deionized water for 20 minutes at 4° C. to lyse the cells with hypotonic condition (decellularization). Matrix is rinsed free of cell debris, and ECM samples are kept overnight at 4° C.
Series [7] relates to α-SMA. The experiment in a line: α-SMA Western blot in normal (N) and HS skin fibroblasts. It counts as cell-based, human. On the technique in general: In western blotting, separated proteins are transferred to a membrane and probed.
Text: GAPDH is loading control. […] GAPDH is loading control. […] The effects of AEEA on collagen and other extra-cellular protein abundances can be further evaluated by using the normal human neonatal primary dermal fibroblast (ATCC® PCS-201-010™), and normal skin fibroblasts (NS Fb), and also hypertrophic scar fibroblasts (HS Fb) derived from skin of the other clinically evident HS developed by patients. Time course and dose response studies can also be used to test the effects of AEEA on stability of those proteins, by Western blotting, to see if it is degraded more quickly in the AEEA treated cells. For Western Blot, cultured N Fb and FS Fb grown and treated with AEEA as described above can be gently washed with 4° C. pre-chilled PBS. The plate is then placed on the surface of a −20° C. ice block. […] Therefore, samples are serially extracted with RIPA buffer, urea extraction buffer and then 0.5 M acetic acid; or, with native sample buffer, as described above. […] The protein concentrations of the samples extracted with RIPA measured by with the DC™ protein assay kit (Bio-Rad Laboratories, Inc. USA), while the protein of remaining extracts is quantitated with the BCA protein assay (Pierce). […] Signals are recorded on film (CL-XPousure™ film, Thermo Scientific) by using ECL™ Western blot detection reagents (Amersham Biosciences, RPN2209).
Series [8] in a line: Rat model of 30% scald burn, localized injections, adverse effect on skin or burn wound healing. It counts as in vivo. As to the method:
To assess the possibility of an adverse AEEA effect on skin or burn wound healing, a rat model of 30% scald burn was utilized. AEEA was used to treat burns (or unburned skin as sham) by localized multiple injections (5 of 0.1 ml) of AEEA at 5.0 and 50.0 mM concentrations, which are 100- or 1,000-fold of the effective concentration in our cell culture, respectively, but is only 10% concentration of the rat DAA experiments by gavage.

For series [9], the system named is collagen type 1. The experiment in a line: Collagen type 1 extractability, sequential denaturing ECM extraction (RIPA then urea), Western blot densitometry. It counts as cell-based, human. The note with it: for increased extractability of collagen type 1 (by densitometry): 14 day exposure, HS fibroblasts, urea lysis buffer. As to the method: Preparation of Decellularized Matrix Scaffold, or Extracellular Matrix (ECM): The methods for isolation and characterization of the matrix of skin cells (fibroblastic-type cells) derived from normal (N Fb) and those derived from hypertrophic scar (HS Fb), as well as an embryonic fibroblast (E Fb) as a further control for comparison by the present inventors; these basic methods can be followed in the characterization of mechanism(s) of HS. Briefly, fibroblast-like cells are cultured on 13 mm diameter Nunc™ Thermanox™ Coverslips (Catalog #174950) in 24-well cell culture plates in DMEM supplemented with 13% FCS, antibiotics, and 50 μg/ml of sodium ascorbate; cells are seeded at the number that cell density reaches 70% confluence in 24 hours. AEEA treatments start before the formation of ECM, at the second day post passage. Sodium ascorbate, which is the crucial cofactor of lysyl oxidase (LOX), lysyl hydroxylase, and proline hydroxylase (to be assayed), is added daily, 5 days/week, to stimulate ECM assembly. AEEA is changed with culture media (every 3 days). […] The next day, water is replaced with PBS, and the preparation is ready for AFM, or other biochemical, molecular or proteomic studies as described below. […]
Total collagen content of the matrix can be determined by established extraction procedures and a dye-binding method based on the specific binding of Sirius Red dye to the [Gly-X-Y]n helical structure of collagen types I to XIV. […] Elastin can be determined in separate samples as soluble tropoelastin utilizing a dye binding assay (Accurate Chemical Corp., Westbury, N.Y.) and as insoluble elastin by repeated salt and alkali extraction as previously described. The effects of AEEA on collagen and other extra-cellular protein abundances can be further evaluated by using the normal human neonatal primary dermal fibroblast (ATCC® PCS-201-010™), and normal skin fibroblasts (NS Fb), and also hypertrophic scar fibroblasts (HS Fb) derived from skin of the other clinically evident HS developed by patients. […]

These results are taken from patent US10285956B2, “N-(2-aminoethyl) ethanolamine (AEEA) and analogs to treat hypertrophic scarring and liposomal topical delivery” (BOARD OF REGENTS, THE UNIVERSITY OF TEXAS SYSTEM, priority 2016, dated 2019).

As to “TGFβ1: transforming growth factor-β1, regulator of scarring used to treat HS cells [reference compound]”, the “effect on Integrins αV and β5 (extractability)” value in series [1] is “increasing”. Besides, the “TGFβ1 effect: increase in triple helical collagen” value is given as 10 fold in [2] (0.0 (control) AEEA, 7 days) and 16 fold in series [2] (with 25 μM AEEA, 7 days). In addition, the “increased extractability of fibronectin” value in series [3] (TGFβ1 alone, denaturing gel, HS cells) is recorded as 5 fold. The “Extractable N-Cadherin” value in series [4] is “increased”.
On to `NCCNCCO` [AEEA, N-(2-aminoethyl) ethanolamine], for which the “finding in rat pups born to mother rats exposed in utero” value in series [5] is “dramatic dissecting aortic aneurysms”. The “effect on Integrins αV and β5 (extractability)” value in series [1] is given as “increasing”. Also, the “increase in triple helical collagen” value in series [2] (25 μM AEEA alone, 7 days, native gel) is 6 fold. The “TGFβ1 effect on triple helical collagen in presence of AEEA” value in series [2] (50 μM AEEA plus TGFβ1, 7 days) was “not present”. Moreover, in series [3] (50 μM AEEA plus TGFβ1, HS cells), the “TGFβ1 enhancement of fibronectin in presence of AEEA” value is “blocked”. Further, in series [3] (AEEA at 25 or 50 μM alone, HS cells), the “effect on extractability of fibronectin” value was “little effect”. Moreover, the “appearance of interstitial matrix by SEM” value in [6] is given as “marked irregularities”. Further, the “Extractable N-Cadherin” value in series [4] was “increased”. Further, the α-SMA expression entry in [7] (1-10 mM AEEA, 14 days, normal (N) and HS skin fibroblasts) is given as “loss of α-SMA”; in series [7] (low (μM) AEEA doses, 14 day exposure, HS fibroblasts) it was “not down-regulated”. The “localized skin or systemic effects” value in series [8] (5 injections of 0.1 ml at 5.0 and 50.0 mM, burns or unburned skin) is “no untoward localized skin or systemic effects”. Further, the “histology, AEEA sites vs vehicle (PBS buffer) sites” value in series [8] (normal unburned skin or full thickness burns, 7 days post-burn) is “no qualitative or quantitative differences”. Moreover, the figures for the “increased extractability of collagen type 1 (by densitometry)” value in [9] (25 μM AEEA) and in series [9] (100 μM AEEA) were 2 fold and 5 fold, respectively. Also, the “increase of Collagen I extractability, densitometrically” value in [9] (human burn wound fibroblasts (from HS) cultured in 50 μM compound) came to 3 fold.
